{"source": "patent US20210386721A1", "about": "“SUBSTITUTED PHENYLPROPENYL PYRIDINE DERIVATIVES, THEIR PREPARATION AND PHARMACEUTICAL APPLICATIONS” (SHANGHAI HAIYAN PHARMACEUTICAL TECHNOLOGY CO., LTD., priority 2019, published 2021)", "data": [{"target": "T1, PD-1/PD-L1 (Homo sapiens, UniProt Q9NZQ7)", "T1 construct": "purchased Cisbio 63ADK000CPDPEB", "T1 sequence (Q9NZQ7 19-238 limits assumed)": "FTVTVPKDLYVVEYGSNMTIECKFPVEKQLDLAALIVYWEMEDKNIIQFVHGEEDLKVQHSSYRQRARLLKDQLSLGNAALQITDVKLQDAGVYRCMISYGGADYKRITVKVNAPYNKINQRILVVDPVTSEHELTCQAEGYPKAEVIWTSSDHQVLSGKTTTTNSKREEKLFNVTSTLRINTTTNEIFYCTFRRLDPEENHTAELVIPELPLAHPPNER", "assay": "PD-1/PD-L1 binding assay (HTRF, PPI-HTRF)", "details": "HTRF PD1/PD-L1 binding assay kit; 10 nM Tag1-PD-L1; 25° C.", "experimental": "Assay 1 PD-1/PD-L1 Binding Assay\nDMSO is from Sigma, Cat No: D5879; 384-well small volume plate (white) is from Greiner, Cat No: 784075; Anti-PD1 blocking antibody (IC50: 10 nM) is from Cisbio, Cat No: 64CUS000C-1a; Anti-PDL1 blocking antibody (IC50: 0.3 nM) is from Cisbio, Cat No: 64CUS000C-1b; HTRF PD1/PD-L1 binding assay kit is from Cisbio, Cat No: 63ADK000CPDPEB.\n1. Prepare the compound to be tested at 2x concentration into 1× reaction buffer containing 4% DMSO;\n2. Tag1-PD-L1 protein and Tag2-PD1 protein were prepared in 1× reaction buffer at concentrations of […] and 10 nM, respectively. The final reaction concentration of the experiment was 10 nM Tag1-PD-L1 and 2 nM […];\n3. anti-Tag1-Eu3+ antibody is prepared in 1x concentration detection buffer at a ratio of 1:100;\n4. anti-Tag2-XL665 antibody is prepared in 1x concentration detection buffer at a ratio of 1:25; Experimental steps\n1. 5 μL of compounds to be tested (2×) was added;\n2. 2.5 ul Tag1-PD-L1 protein and 2.5 ul Tag2-PD1 protein were added respectively, and the total reaction system is 10 ul, and reacted at 25° C. for 15 minutes;\n3. 5 ul anti-Tag1-Eu3+ antibody and 5 ul anti-Tag2-XL665 antibody were added respectively, and reacted at 25° C. for 16 hours;\n4. The fluorescence microplate reader HTRF reading program was used to read two readings at 665 nm and 620 nm, the ratio of the two wavelengths was used to judge the activity of the compound, and the IC50 of the compound to be tested is calculated by XLFIT5.0 (IDBS).", "units": {"IC50": "nM"}, "values": [{"molecule": "Cc1c(NC(=O)c2ccc(CNCCO)cn2)cccc1-c1ccnc(/C=C/c2ccc3c(c2)CCN(CC(=O)O)C3)c1C#N", "note": "[Z-3, (E)-2-(6-(2-(3-cyano-4-(3-(5-(((2-hydroxyethyl)amino)methyl)picolinamido)-2-methylphenyl)pyridin-2-yl)vinyl)-3,4-dihydroisoquinolin-2(1H)-yl)acetic Acid]", "IC50": 9}, {"molecule": "Cc1cc(/C=C/c2nccc(-c3cccc(NC(=O)c4ccc(CNCCO)cn4)c3C)c2C#N)c(F)cc1CNCCO", "note": "[Z-4, (E)-N-(3-(3-cyano-2-(2-fluoro-4-(((2-hydroxyethyl)amino)methyl)-5-methylstyryl)pyridin-4-yl)-2-methylphenyl)-5-(((2-hydroxyethyl)amino)methyl)picolinamide]", "IC50": "< 1"}, {"molecule": "Cc1cc(/C=C/c2nccc(-c3cccc(NC(=O)c4ccc(CN5CCCC[C@@H]5C(=O)O)cn4)c3C)c2C#N)c(Cl)cc1CN1CC[C@@H](O)C1", "note": "[Z-6, (R)-1-((6-((3-(2-((E)-2-chloro-4-(((R)-3-hydroxypyrrolidin-1-yl)methyl)-5-methylstyryl)-3-cyanopyridin-4-yl)-2-methylphenyl)carbamoyl)pyridin-3-yl)methyl)piperidine-2-carboxylic Acid]", "IC50": 2}, {"molecule": "Cc1cc(/C=C/c2nccc(-c3cccc(Nc4nccc5cc(CN6CC[C@@H](O)C6)cnc45)c3C)c2C#N)c(Cl)cc1CN1CCCC[C@H]1C(=O)O", "note": "[Z-7, (S)-1-(5-chloro-4-((E)-2-(3-cyano-4-(3-((3-(((R)-3-hydroxypyrrolidin-1-yl)methyl)-1,7-naphthyridin-8-yl)amino)-2-methylphenyl)pyridin-2-yl)vinyl)-2-methylbenzyl)piperidine-2-carboxylic Acid]", "IC50": 1}, {"molecule": "COc1cc(/C=C/c2cccc(-c3cccc(Nc4nccc5cc(CN6CC[C@@H](O)C6)c(C(F)(F)F)nc45)c3C)c2C)c(C(F)(F)F)cc1CN1CC[C@@H](C(=O)O)C1", "note": "[Z-10, (R)-1-(4-((E)-2-(3′-((3-(((R)-3-hydroxypyrrolidin-1-yl)methyl)-2-(trifluoromethyl)-1,7-naphthyridin-8-yl)amino)-2,2′-dimethyl-[1,1′-biphenyl]-3-yl)vinyl)-2-methoxy-5-(trifluoromethyl)benzyl)pyrrolidine-3-carboxylic Acid]", "IC50": 3}, {"molecule": "COc1cc(/C=C/c2nccc(-c3cccc(Nc4nccc5cc(CN6CC[C@@H](O)C6)cnc45)c3C)c2C#N)c(C(F)(F)F)cc1CN1CC[C@@H](C(=O)O)C1", "note": "[Z-13]", "IC50": 2}, {"molecule": "COc1cc(/C=C/c2cccc(-c3cccc(Nc4n[nH]c5ccc(CN6CC[C@@H](O)C6)cc45)c3C)c2C)c(C(F)(F)F)cc1CN1CC[C@@H](C(=O)O)C1", "note": "[Z-15, (R)-1-(4-((E)-2-(3′-((5-(((R)-3-hydroxypyrrolidin-1-yl)methyl)-1H-indazole-3-yl)amino)-2,2′-dimethyl-[1,1′-biphenyl]-3-yl)vinyl)-2-methoxy-5-(trifluoromethyl)benzyl)pyrrolidine-3-carboxylic Acid]", "IC50": 3}, {"molecule": "COc1cc(/C=C/c2cccc(-c3cccc(-c4nc5cc(CN6CC[C@@H](O)C6)ccc5o4)c3C)c2C)c(C(F)(F)F)cc1CN1CC[C@@H](C(=O)O)C1", "note": "[Z-16]", "IC50": 1}, {"molecule": "Cc1cc(/C=C/c2cccc(-c3cccc(-c4nc5cc(CN6CC[C@@H](O)C6)ccc5o4)c3C)c2C)c(C(F)(F)F)cc1CN1CC[C@@H](C(=O)O)C1", "note": "[Z-17]", "IC50": 1}, {"molecule": "COc1cc(/C=C/c2cccc(-c3cccc(-c4nc5cc(CN6CC[C@@H](O)C6)ccc5o4)c3C)c2C#N)c(C(F)(F)F)cc1CN1CC[C@@H](C(=O)O)C1", "note": "[Z-19]", "IC50": 2}, {"molecule": "COc1cc(/C=C/c2cccc(-c3cccc(-c4nc5cc(CN6CC[C@@H](O)C6)ccc5o4)c3C)c2F)c(C(F)(F)F)cc1CN1CC[C@@H](C(=O)O)C1", "note": "[Z-20]", "IC50": 2}, {"molecule": "COc1cc(/C=C/c2cccc(-c3cccc(-c4nc5cc(CN6CC[C@@H](O)C6)cc(Cl)c5o4)c3C)c2C)c(C(F)(F)F)cc1CN1CC[C@@H](C(=O)O)C1", "note": "[Z-22]", "IC50": 2}, {"molecule": "COc1cc(/C=C/c2cccc(-c3cccc(-c4nc5cc(CN6CC[C@@H](C(=O)O)C6)cc(C#N)c5o4)c3C)c2F)c(C(F)(F)F)cc1CN1CC[C@@H](O)C1", "note": "[Z-25]", "IC50": 1}]}]}
